Results from patent publication US20110070326A1, “OREGANO EXTRACT AND ITS COMPONENTS FOR ENHANCING VIGILANCE” (DSM IP ASSETS B.V., priority 2006, published 2011).
Where “and” joins values, the source holds several entries; their conditions need not be identical. Equal entries are not always repeated.

Columns and labels:
[1] = system: mice; assay: Marble burying test; format: in vivo, mouse; details: for NUMBER OF MARBLES COVERED BY SAWDUST Mean ± s.e.m.: 25 marbles, 30-minute test, 15 mice
Description: The method applied here follows that described by Broekkamp et al. 1986, supra. Mice (n=15 per treatment group) were individually placed in transparent plastic cages (33×21×18 cm) with 5 cm of sawdust on the floor and 25 marbles (diameter 1 cm) grouped in the centre of the cage. A second, up-tamed, cage served as a lid. The number of marbles covered by sawdust (by at least two-thirds) was counted at the end of the 30-minute test period. Tests were performed by investigators blind to the drug treatment protocol.
Prior to testing, all test cages and marbles were “impregnated” by leaving 10 naive mice in each cage for 15 minutes.
Oregano extract 1 was evaluated at 10, 30 and 60 mg/kg, administered i.p. 30 minutes before the test, and compared with a vehicle control group. Oregano extract 1 was dissolved in a saline solution containing 3% (v/v) DMSO and 3% (v/v) Tween® 80 “vehicle”. The control group were administered vehicle in the same manner, while fluoxetine (32 mg/kg), administered under the same experimental conditions, was used as a reference substance. Data were analyzed by comparing treated groups with vehicle control using unpaired Student's t-tests.

[2] = system: hippocampal serotonin (5HT) levels; assay: Hippocampal serotonin levels by in vivo microdialysis; parameters: species or system rat; details: cumulative 5HT in dosing period, n = 5-6 rats
Description: Male Sprague-Dawley rats (250-320 g) were housed in groups of 4-5 under conditions of controlled temperature (21±2° C.) and humidity (55±10%) with free access to food and water (lights on 07.00-19.00). Rats were anaesthetised using chloral hydrate (400 mg/kg i.p.) and a single microdialysis probe (BASi type MD2200, 2 mm membrane, 30,000 dalton cut-off) implanted in the dorsal hippocampus using a stereotaxic frame at the following coordinates (rostro-caudal—4.5 mm; media-lateral—2.5 mm; dorso-ventral—4.5 mm from bregma and dura surface according to Paxinos & Watson 6) and fixed in position with dental cement. Body temperature was maintained at 36° C. using a heating pad and monitored via a digital rectal thermometer. The microdialysis probe was perfused with artificial cerebrospinal fluid (aCSF) at 1 μl/min and extracellular monoamine levels determined by collection of perfusate samples every 15 min and assayed using high-performance liquid chromatography (HPLC) with electrochemical detection.
The HPLC mobile phase (0.5 mM EDTA, 0.1M monochloroacetic acid pH 3.1, 0.15 g/L sodium octyl sulphate, 5% acetonitrile, 0.7% tetrahydrofuran) was pumped through the system at 70 μl/min. Monoamines were separated using a reverse-phase 1×100 mm ODS 3 mm microbore column with 5 μl injection loop and detected using a Epsilon electrochemical detector (BAST) with a glassy carbon electrode set at +650 mV versus Ag/AgCl reference electrode. Dialysate peaks were identified by comparing peak elution times with reference standards and quantified according to measurement of peak area using linear regression analysis. The detection limits for 5HT and SHIAA were defined as the sample amount producing a peak area twice that of the background noise per unit time and were approximately 0.1 fmol/sample in both cases. […]
For routine assay, two rats were prepared of which one was used to test the oregano extract and the other a control (vehicle) sample. […] Data from replicate studies for each compound are therefore expressed as % Basal level, as is normal practice for microdialysis studies. […]

[3] = system: mice; assay: Porsolt's Forced Swim Test (Behavioral Despair Test), i.p.; format: in vivo, mouse; details: 16 mg/kg i.p., −30 min, 15 mice
Description: The test, which detects antidepressant activity, was carried out as described by Porsolt et al supra. Mice which are forced to swim in a situation from which they cannot escape rapidly become immobile. Antidepressants decrease the duration of immobility.
Mice were individually placed in cylinders (Height=24 cm, Diameter=13 cm) containing 10 cm water (22° C.) from which they could not escape. The mice were placed in the water for 6 minutes and the duration of immobility during the last 4 minutes was measured.
15 mice were studied per each of the four groups.
Oregano extract 1 was evaluated at 3 doses (10, 30 and 60 mg/kg), administered i.p. 30 minutes before the test, and compared with a control group, administered vehicle in the same manner. The thus administered […] was dissolved in vehicle (saline solution containing 3% (v/v) DMSO and 3% (v/v) Tween® 80). Venlafaxine (16 mg/kg, i.p.), as comparison substance, and imipramine (32 mg/kg, i.p.), as reference compound, were administered under the same experimental conditions.
Data were analyzed by comparing the treated groups with the control group using unpaired Student's t tests and are presented in Table 3.

[4] = system: mouse; assay: Light Dark Box Test in the mouse; format: in vivo; details: 16 mg/kg i.p. −30 min; for NUMBER OF CROSSINGS mean ± s.e.m. / TIME SPENT IN LIGHT COMPARTMENT (s) mean ± s.e.m.: 3-minute test, 15 mice
From the text: The method, which detects anxiolytic activity, follows that described by Crawley, 1981 Pharmacol. Biochem. Behav., 15: 695-699. Anxiolytics increase the time spent in the light compartment.
Animals were placed into the light compartment of a 2-compartment box with one half light and open (25×27×27 cm) and the other half dark and closed (20×27×27 cm). The time spent in each compartment, as well as the number of times the animal crosses from one side to the other, is scored during a 3-minute test. 15 mice were studied per group. The test was performed blind.
Oregano extract 1 was evaluated at 3 doses (10, 30 and 60 mg/kg), administered i.p. 30 minutes before the test, and compared with a vehicle control group. Oregano extract 1 was dissolved in a saline solution containing 3% (v/v) DMSO and 3% (v/v) Tween® 80 (“vehicle”). The control group was administered vehicle, venlafaxine (16 mg/kg i.p) was used as comparison substance and clobazam (16 mg/kg i.p) was used as reference substance, all being administered i.p., 30 minutes prior to the test.

[5] = Plasma level of free and total carvacrol after oral oregano extract 4 (LC/MS/MS); format: in vivo, rat; details: individual animals
Description: 4 male and 4 female rats received a single dose of 800 mg of oregano extract 4 per kg body weight by oral gavage, respectively. The application solution was prepared in corn oil at a concentration of 200 mg extract per gram formulation.
The sample analysis was performed with a liquid chromatography—tandem mass spectrometry (LC/MS/MS) system, using a column switching system for online cleaning and desalting of the samples.
After addition of internal standard (D2-thymol) and protein precipitation (in case of “free” analyte) or pre-digesting by β-glucuronidase followed by protein precipitation (in case of “total” analyte), the samples were injected on a Waters XTerra™ MS C18 guard-column used as purification column, then transferred onto a Waters XTerra™ C18 column. Detection was performed using tandem mass spectrometry in MRM mode.
Calibration and quality control samples were prepared in 5% Albumin bovine serum solution and human plasma.

CNCCC(Oc1ccc(C(F)(F)F)cc1)c1ccccc1 (stereo not drawn) [Fluoxetine]
NUMBER OF MARBLES COVERED BY SAWDUST % change from control ([1]; 32 mg/kg i.p., −30 min): −93% | NUMBER OF MARBLES COVERED BY SAWDUST Mean ± s.e.m. ([1]; 32 mg/kg i.p., −30 min): 1.4 ± 1.0 | 5-HT LEVEL (% basal) Mean ± s.e.m. ([2]; 3 mg/kg i.p., injection 150 min post-surgery): 85 ± 4 % basal | 5-HT LEVEL (% basal) Mean ± s.e.m. ([2]; 10 mg/kg i.p., injection 210 min post-surgery): 131 ± 9 % basal | 5-HT LEVEL (% basal) Mean ± s.e.m. ([2]; 30 mg/kg i.p., injection 270 min post-surgery): 160 ± 7 % basal

COc1ccc(C(CN(C)C)C2(O)CCCCC2)cc1 (stereo not drawn) [Venlafaxine]
DURATION OF IMMOBILITY % change from control [3]: −51% | DURATION OF IMMOBILITY (s) Mean ± s.e.m. [3]: 80.1 ± 11.1 s | DURATION OF IMMOBILITY % change from control ([3]; listed as venlafaxine): −51% | NUMBER OF MARBLES COVERED BY SAWDUST % change from control ([1]; 16 mg/kg i.p. −30 min): −98% | NUMBER OF MARBLES COVERED BY SAWDUST Mean ± s.e.m. ([1]; 16 mg/kg i.p., −30 min): 0.5 ± 0.3 | NUMBER OF MARBLES COVERED BY SAWDUST % change from control ([1]; 16 mg/kg i.p., −30 min, listed as venlafaxine): −98% | NUMBER OF CROSSINGS % change from control [4]: −6% | TIME SPENT IN LIGHT COMPARTMENT % change from control [4]: 0% | NUMBER OF CROSSINGS mean ± s.e.m. [4]: 4.4 ± 0.9 | TIME SPENT IN LIGHT COMPARTMENT (s) mean ± s.e.m. [4]: 55.2 ± 9.3 s

CN1C(=O)CC(=O)N(c2ccccc2)c2cc(Cl)ccc21 [Clobazam]
NUMBER OF CROSSINGS % change from control [4]: +68% | TIME SPENT IN LIGHT COMPARTMENT % change from control [4]: +114% | NUMBER OF CROSSINGS mean ± s.e.m. [4]: 7.9 ± 0.9 | TIME SPENT IN LIGHT COMPARTMENT (s) mean ± s.e.m. [4]: 118.4 ± 3.4 s

Cc1ccc(C(C)C)cc1O [Carvacrol]
Free Carvacrol (ng/mL) in plasma ([5]; female rats, 0.5 h after single 800 mg/kg oregano extract 4 by oral gavage in corn oil): 5120 ng/mL and 4090 ng/mL and 50100 ng/mL and 30.9 ng/mL | Free Carvacrol (ng/mL) in plasma ([5]; female rats, 1 h after single 800 mg/kg oregano extract 4 by oral gavage in corn oil): 6050 ng/mL and 3610 ng/mL and 192 ng/mL | Free Carvacrol (ng/mL) in plasma ([5]; female rats, 2 h after single 800 mg/kg oregano extract 4 by oral gavage in corn oil): 840 ng/mL and 1360 ng/mL and 64.3 ng/mL | Free Carvacrol (ng/mL) in plasma ([5]; female rats, 3 h after single 800 mg/kg oregano extract 4 by oral gavage in corn oil): 228 ng/mL and 174 ng/mL | Free Carvacrol (ng/mL) in plasma ([5]; female rats, 4 h after single 800 mg/kg oregano extract 4 by oral gavage in corn oil): 246 ng/mL and 102 ng/mL and 50.3 ng/mL | Free Carvacrol (ng/mL) in plasma ([5]; female rats, 6 h after single 800 mg/kg oregano extract 4 by oral gavage in corn oil): 135 ng/mL and 91.9 ng/mL and 48.3 ng/mL | Free Carvacrol (ng/mL) in plasma ([5]; female rats, 8 h after single 800 mg/kg oregano extract 4 by oral gavage in corn oil): 159 ng/mL and 1630 ng/mL and <LOQ = 10.0 ng/mL | Free Carvacrol (ng/mL) in plasma ([5]; female rats, 24 h after single 800 mg/kg oregano extract 4 by oral gavage in corn oil): 127 ng/mL and 8.91 ng/mL and <LOQ = 10.0 ng/mL | concentration at 3 h ([5]; female, rat, plasma, po, 800 mg/kg, Free Carvacrol (ng/mL) in plasma, female rats, 3 h after single 800 mg/kg oregano extract 4 by oral gavage in corn oil): 128 ng/mL | Free Carvacrol (ng/mL) in plasma ([5]; male rats, 0.5 h after single 800 mg/kg oregano extract 4 by oral gavage in corn oil): 1530 ng/mL and 103 ng/mL and 55.9 ng/mL and 1320 ng/mL | Free Carvacrol (ng/mL) in plasma ([5]; male rats, 1 h after single 800 mg/kg oregano extract 4 by oral gavage in corn oil): 1150 ng/mL and 1820 ng/mL | Free Carvacrol (ng/mL) in plasma ([5]; male rats, 2 h after single 800 mg/kg oregano extract 4 by oral gavage in corn oil): 166 ng/mL and 584 ng/mL and 199 ng/mL | Free Carvacrol (ng/mL) in plasma ([5]; male rats, 3 h after single 800 mg/kg oregano extract 4 by oral gavage in corn oil): 51.5 ng/mL and 58.4 ng/mL and 1580 ng/mL | Free Carvacrol (ng/mL) in plasma ([5]; male rats, 4 h after single 800 mg/kg oregano extract 4 by oral gavage in corn oil): 30.4 ng/mL and 40 ng/mL and 316 ng/mL | Free Carvacrol (ng/mL) in plasma ([5]; male rats, 6 h after single 800 mg/kg oregano extract 4 by oral gavage in corn oil): 83.4 ng/mL and 980 ng/mL and 100 ng/mL | Free Carvacrol (ng/mL) in plasma ([5]; male rats, 8 h after single 800 mg/kg oregano extract 4 by oral gavage in corn oil): 156 ng/mL and 140 ng/mL | Free Carvacrol (ng/mL) in plasma ([5]; male rats, 24 h after single 800 mg/kg oregano extract 4 by oral gavage in corn oil): <LOQ = 10.0 ng/mL | concentration at 1 h ([5]; male, rat, plasma, po, 800 mg/kg, Free Carvacrol (ng/mL) in plasma, male rats, 1 h after single 800 mg/kg oregano extract 4 by oral gavage in corn oil): 1790 ng/mL | concentration at 8 h ([5]; male, rat, plasma, po, 800 mg/kg, Free Carvacrol (ng/mL) in plasma, male rats, 8 h after single 800 mg/kg oregano extract 4 by oral gavage in corn oil): 185 ng/mL | concentration at 24 h ([5]; male, rat, plasma, po, 800 mg/kg, Free Carvacrol (ng/mL) in plasma, male rats, 24 h after single 800 mg/kg oregano extract 4 by oral gavage in corn oil): 68.1 ng/mL
